In publication PMC2804269 (Bioconjugate chemistry, 2009):
Bridge positions count the residues as written; N and C are the ends. Peptide text beside a SMILES is read from it. * marks the point of attachment. Benzoyl(4-F) = O=C(c1ccc(F)cc1)*

Tests used:
[1] = tested on: U87MG tumor bearing mice; test: Static microPET imaging quantification; format: in vivo, mouse; conditions: quantification of microPET images
[2] = tested on: U87MG tumor bearing mice; test: Dynamic microPET scan of U87MG tumor-bearing mouse; format: in vivo; conditions: 35 min p.i., ROI analysis of the heart
[3] = Biodistribution in nude mice bearing U87MG xenografts; format: in vivo, mouse; conditions: nude, mouse, iv, 740 KBq (20 uCi), total radioactivity, 0.5 h p.i., n = 3
[4] = tested on: U87MG tumor bearing mice; test: as above; format: in vivo, mouse; conditions: 330 μg c(RGDyK), 0.5 h p.i., P < 0.05
[5] = target: αvβ3 integrin; conditions: binding to αvβ3 integrin; cited from earlier work
[6] = target: integrin αvβ3 (Homo sapiens) (UniProt P06756); conditions: cited from earlier work
Sequence of UniProt P06756 (P06756 31-1048, chain 1 of 2): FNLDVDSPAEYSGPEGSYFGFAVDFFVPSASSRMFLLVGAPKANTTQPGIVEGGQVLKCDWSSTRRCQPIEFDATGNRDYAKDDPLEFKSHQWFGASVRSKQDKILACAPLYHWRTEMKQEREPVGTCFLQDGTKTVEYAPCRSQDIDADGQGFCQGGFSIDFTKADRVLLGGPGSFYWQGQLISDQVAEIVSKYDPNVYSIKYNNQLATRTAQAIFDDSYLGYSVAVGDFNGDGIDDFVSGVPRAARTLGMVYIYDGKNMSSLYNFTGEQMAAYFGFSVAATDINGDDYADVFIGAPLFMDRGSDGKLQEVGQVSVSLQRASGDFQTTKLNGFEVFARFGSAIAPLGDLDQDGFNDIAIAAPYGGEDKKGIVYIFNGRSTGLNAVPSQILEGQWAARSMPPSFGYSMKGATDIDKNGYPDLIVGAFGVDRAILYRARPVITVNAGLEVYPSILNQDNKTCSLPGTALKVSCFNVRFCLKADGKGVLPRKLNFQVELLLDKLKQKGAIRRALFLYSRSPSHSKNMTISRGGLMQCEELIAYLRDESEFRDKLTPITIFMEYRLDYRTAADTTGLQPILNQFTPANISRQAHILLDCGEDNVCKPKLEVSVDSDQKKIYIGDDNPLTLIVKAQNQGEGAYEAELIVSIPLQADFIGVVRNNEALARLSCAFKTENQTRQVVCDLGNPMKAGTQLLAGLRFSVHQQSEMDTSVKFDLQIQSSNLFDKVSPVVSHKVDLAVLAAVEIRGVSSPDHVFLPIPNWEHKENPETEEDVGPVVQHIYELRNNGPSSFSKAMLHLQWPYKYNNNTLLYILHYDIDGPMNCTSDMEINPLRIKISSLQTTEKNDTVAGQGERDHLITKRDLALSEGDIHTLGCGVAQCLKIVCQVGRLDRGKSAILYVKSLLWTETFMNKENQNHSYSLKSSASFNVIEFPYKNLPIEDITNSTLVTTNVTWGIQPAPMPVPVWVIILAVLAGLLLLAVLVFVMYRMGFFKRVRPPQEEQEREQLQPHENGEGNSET
Sequence of UniProt P06756 (P05106 27-788, chain 2 of 2, further chain): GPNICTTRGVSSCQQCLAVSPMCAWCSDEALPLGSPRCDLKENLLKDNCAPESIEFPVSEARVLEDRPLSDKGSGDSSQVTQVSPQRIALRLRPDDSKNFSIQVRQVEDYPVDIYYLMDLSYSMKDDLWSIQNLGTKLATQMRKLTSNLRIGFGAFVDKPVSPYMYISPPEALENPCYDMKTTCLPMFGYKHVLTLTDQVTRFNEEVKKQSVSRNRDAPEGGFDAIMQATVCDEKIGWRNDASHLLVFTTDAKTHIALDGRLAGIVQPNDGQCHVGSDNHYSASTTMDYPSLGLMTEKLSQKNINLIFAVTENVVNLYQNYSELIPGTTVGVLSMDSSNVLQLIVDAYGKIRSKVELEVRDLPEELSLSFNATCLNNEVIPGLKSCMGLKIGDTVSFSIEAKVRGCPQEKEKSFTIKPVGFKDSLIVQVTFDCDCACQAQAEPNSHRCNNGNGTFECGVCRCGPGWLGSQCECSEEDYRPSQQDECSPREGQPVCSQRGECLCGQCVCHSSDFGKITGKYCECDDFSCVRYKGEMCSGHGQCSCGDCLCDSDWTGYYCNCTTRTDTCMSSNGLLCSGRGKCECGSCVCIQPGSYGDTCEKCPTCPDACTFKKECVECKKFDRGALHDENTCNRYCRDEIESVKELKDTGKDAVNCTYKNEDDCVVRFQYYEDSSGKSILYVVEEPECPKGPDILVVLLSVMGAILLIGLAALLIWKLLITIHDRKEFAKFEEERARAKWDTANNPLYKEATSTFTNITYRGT

Question: With `CC(C)C[C@@H]1NC(=O)[C@@H]2CSSC[C@@H](C(=O)NCC(N)=O)NC(=O)[C@H](Cc3ccccc3)NC(=O)CNC(=O)[C@H](CC(N)=O)NC(=O)[C@@H]3CCCN3C(=O)CNC(=O)[C@@H]3CSSC[C@H](NC(=O)[C@H](CO)NC(=O)[C@H]([C@@H](C)O)NC(=O)[C@@H]4CCCN4C(=O)[C@H](C)NC(=O)[C@H](Cc4c[nH]c5ccccc45)NC(=O)[C@H](CC(=O)O)NC(=O)CNC(=O)[C@H](CCCNC(=N)N)NC(=O)CNC(=O)[C@H](CCC(N)=O)NC(=O)[C@@H]4CCCN4C(=O)[C@@H](NC(=O)CNC(=O)c4ccc(F)cc4)CSSC[C@H](NC(=O)CNC(=O)[C@H](C)NC1=O)C(=O)N[C@@H](C(C)C)C(=O)N3)C(=O)N[C@@H](CO)C(=O)N[C@@H](CCC(N)=O)C(=O)N[C@@H](CC(=O)O)C(=O)N[C@@H](CO)C(=O)N[C@@H](CC(=O)O)C(=O)N2` [^18F-FB-2.5D] ({Benzoyl(4-F)}-GCPQGRGDWAPTSCSQDSDCLAGCVCGPNGFCG-NH2; disulfide 2-24, 14-26, 20-32; C-terminus assumed) as the molecule, how does the “activity remaining in tumor at 1 h p.i. compared to 0.5 h” value [1] read?
Answer: 56%

Question: And the “radioactivity in blood relative to amount at 3 min p.i.” value [2]?
Answer: approximately 9.2%

Question: What about the tissue uptake at 0.5 h ([3]; blood, blood radioactivity (biodistribution)) of the same molecule?
Answer: 1.32 ± 0.07 %ID/g

Question: What about the tissue uptake at 0.5 h ([3]; kidney, kidney uptake (biodistribution)) of the same molecule?
Answer: 4.24 ± 0.19 %ID/g

Question: And the tissue uptake at 0.5 h ([3]; liver, liver uptake (biodistribution))?
Answer: 1.38 ± 0.55 %ID/g

Question: What about the “inhibition of tumor uptake by co-injection of c(RGDyK)” value [4] of the same molecule?
Answer: 70%

Question: With echistatin as the molecule, how does the Kd [5] read?
Answer: ~0.3 nM

Question: Which Kd [6] does the source give for Echistatin (from UniProt P17347) here?
Answer: 0.3 nM
